Measurements reported in US9132108B2, “Pharmaceutical composition for ameliorating and/or preventing leptin resistance, and use thereof” (HIROSHIMA UNIVERSITY, priority 2009, dated 2015).

What was measured:
Format in all cases: in vivo, mouse
blood glucose level [1] = assay: Glucose tolerance test after 8 weeks of diet (Example 4); conditions: 10 mg/kg per day orally
Text: In view of the above, Example 4 discussed whether it is possible to evaluate induction of leptin resistance by measuring a change in blood glucose level by the glucose tolerance test as a reference index. At the same time, Example 4 discussed whether administration of flurbiprofen can prevent induction of leptin resistance, by measuring a change in blood glucose level by the glucose tolerance test as a reference index. Specifically, 4 weeks-old mice (C57BL/6 Cr Slc) were divided into four groups each consisting of 14-16 mice. Mice of individual groups were given diets as follows for 8 weeks similarly with Example 3. • Group 1: Normal diet (10 kcal % fat) only • Group 2: High-fat diet (60 kcal % fat) only • Group 3: Normal diet+flurbiprofen • Group 4: High-fat diet+flurbiprofen Flurbiprofen (F8514, produced by SIGMA) was diluted with drinking water so that the administration amount of flurbiprofen would be 10 mg/kg per day, and was orally administered to the mice in the form of drinking water. […] In Example 4, mice were fasted overnight for 17 hours, and fasted blood glucose level (pre) was measured by Freestyle freedom (NIPRO CORPORATION, blood glucose self-monitoring system) at 10:00 a.m. […] Blood glucose level was measured by Freestyle freedom (NIPRO CORPORATION, blood glucose self-monitoring system) 30 minutes, 1 hour, and 2 hours after the administration. […]

[2] = test system: mice given high-fat diet (leptin resistance); assay: Leptin-induced inhibition of food intake (Example 7); conditions: Group 4 (high-fat diet+flurbiprofen); 10 mg/kg per day orally, 8 weeks; leptin 0.5 mg/kg i.p.; no significant difference vs Group 1
Procedure: Specifically, 4 weeks-old male mice (C57BL/6 Cr Slc) were divided into four groups each consisting of 6-8 mice. Mice of individual groups were given diets as follows for 8 weeks similarly with Example 5. • Group 1: Normal diet (10 kcal % fat) only • Group 2: High-fat diet (60 kcal % fat) only • Group 3: Normal diet+flurbiprofen • Group 4: High-fat diet+flurbiprofen
Flurbiprofen (F8514, produced by SIGMA) was diluted with drinking water so that the administration amount of flurbiprofen would be 10 mg/kg per day, and was orally administered to the mice in the form of drinking water.
FIG. 11 is a drawing showing the procedure of the test in Example 7. […] The mice were then habituated for 3 days. Day 0 was the date when the isolation started. In order to eliminate the influence of injection on feeding behavior, 5 mL/kg of physiological saline was intraperitoneally (i.p.) administered as dummy on Days 3 and 4. […]
Subsequently, 0.5 mg/kg of leptin (498-OB, rmLeptin, produced by R&D systems) was intraperitoneally (i.p.) administered on Day 6 and the amount of food intake up to 24 hours after the leptin administration was measured on Day 7. Using the ratio of the amount of food intake on Days 6 and 7 to the amount of food intake on Days 5 and 6 as a reference index, what influence leptin had on the amount of food intake (rate of change in amount of food intake) was analyzed. […]

blood glucose level [3] = assay: Glucose tolerance test in leptin-resistant mice (Example 11); conditions: 3 hours after glucose 2 g/kg i.p.; 3 mg/kg per day orally, 3 weeks; vs control group; P<0.07 in t-test
Procedure: Similarly with Example 8, 4 weeks-old male mice (C57BL/6 Cr Slc) had been given high-fat diet for 6 months so that leptin resistance would be induced in the mice. Thereafter, the mice were divided into two groups (each consisting of 8 mice), and the mice of individual groups were given the following diets for 3 weeks. • Control group: normal diet (10 kcal % fat) only • Flurbiprofen-administered group: normal diet+flurbiprofen Flurbiprofen (F8514, produced by SIGMA) was diluted with drinking water so that the administration amount of flurbiprofen would be 3 mg/kg per day, and was orally administered to the mice in the form of drinking water. The mice to which flurbiprofen had been administered for 3 weeks were subjected to a glucose tolerance test. In Example 11, mice were fasted overnight for 17 hours from between 17:00 and 18:00 of the previous day, and fasted blood glucose level (pre) was measured by Freestyle freedom (NIPRO CORPORATION, blood glucose self-monitoring system) at 10:00 to 11:00. Thereafter, glucose was intraperitoneally (i.p.) administered so that the administration amount of glucose would be 2 g/kg. Blood glucose level was measured using Freestyle freedom (NIPRO CORPORATION, blood glucose self-monitoring system) 30 minutes, 1 hour, 2 hours, 3 hours, and 4 hours after glucose administration. FIG. 17 is a graph showing the result of the glucose tolerance test. […]

C[C@@H](C(=O)O)c1ccc(-c2ccccc2)c(F)c1 [flurbiprofen]
blood glucose level in glucose tolerance test (blood glucose level [1]; Group 3 (normal diet+flurbiprofen) vs Group 1 (normal diet)): no significant difference in blood glucose level | blood glucose level in glucose tolerance test (blood glucose level [1]; Group 4 (high-fat diet+flurbiprofen), 1 hour after glucose 2 g/kg i.p., significant difference vs Group 2): rapidly decreased blood glucose level | rate of change in amount of food intake after leptin administration [2]: reduced food intake caused by leptin | blood glucose level in glucose tolerance test (blood glucose level [3]): reduced blood glucose level
